# Changes are numbered by the printed parent chain.
# Tests used:
# [1] = molecular target: T1, S359A mutant AhR (Mus musculus, UniProt P30561, S359A); assay: [3H]TCDD competitive ligand binding, S359A mutant AhR; conditions: for IC50: Table S6, AhR mutant S359A
# T1 construct: made in house; host or cells: in vitro, Promega TNT Quick rabbit reticulocyte lysate
# T1 sequence (P30561 10-848 S359A): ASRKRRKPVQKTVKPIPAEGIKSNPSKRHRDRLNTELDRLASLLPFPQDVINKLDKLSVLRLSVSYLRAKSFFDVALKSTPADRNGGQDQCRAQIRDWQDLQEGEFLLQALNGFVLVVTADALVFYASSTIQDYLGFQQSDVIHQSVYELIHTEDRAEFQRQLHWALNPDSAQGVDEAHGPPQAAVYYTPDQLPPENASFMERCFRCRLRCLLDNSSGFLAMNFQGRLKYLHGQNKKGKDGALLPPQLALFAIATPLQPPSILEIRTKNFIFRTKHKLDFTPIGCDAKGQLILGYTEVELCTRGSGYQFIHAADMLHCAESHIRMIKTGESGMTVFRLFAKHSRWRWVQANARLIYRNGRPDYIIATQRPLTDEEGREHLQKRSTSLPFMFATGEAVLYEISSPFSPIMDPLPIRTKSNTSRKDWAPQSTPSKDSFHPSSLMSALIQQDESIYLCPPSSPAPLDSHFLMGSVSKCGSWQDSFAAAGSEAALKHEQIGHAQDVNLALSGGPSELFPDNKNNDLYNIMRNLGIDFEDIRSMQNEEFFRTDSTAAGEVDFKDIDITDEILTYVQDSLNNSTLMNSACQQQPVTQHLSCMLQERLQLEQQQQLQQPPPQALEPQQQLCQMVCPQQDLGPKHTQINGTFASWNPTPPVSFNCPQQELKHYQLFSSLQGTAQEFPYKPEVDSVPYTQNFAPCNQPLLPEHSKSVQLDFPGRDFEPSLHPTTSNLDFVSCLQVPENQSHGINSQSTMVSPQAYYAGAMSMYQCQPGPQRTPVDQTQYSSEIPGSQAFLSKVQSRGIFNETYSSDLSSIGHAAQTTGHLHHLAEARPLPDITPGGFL
# Description: The mouse AhR (mAhR) and ARNT (mARNT) expression plasmids, mβAhR/pcDNA3 and mβArnt/pcDNA3, have been previously described. Point mutations of mβAhR/pcDNA3 were carried out using the QuikChange Lightning Mutagenesis Kit (Agilent Technologies) and all constructs were verified by sequencing.
# [^3H]TCDD specific binding to wild-type or mutant mAhRs synthesized in vitro using the Promega TNT Quick coupled transcription/translation rabbit reticulocyte lysate kit (Madison, WI) was carried out as previously described. [^3H]TCDD specific binding was determined by subtracting the amount of [^3H]TCDD bound to unprogrammed lysate (nonspecific binding) from the total amount of [^3H]TCDD binding to lysate containing in vitro expressed AhR. The amount of [^3H]TCDD specific binding remaining in the presence of the indicated competitor chemical was expressed as a percent of the total [^3H]TCDD specific binding. The relative binding affinity (IC50) of each chemical was determined from concentration-dependent competitive inhibition curves obtained using [^3H]TCDD and increasing concentrations of each test chemical and the mean IC50 value was determined using three-parameter non-linear regression.
# [2] = molecular target: T2, L302A mutant AhR (Mus musculus, UniProt P30561, L302A); design: method as in PMID 21981577; conditions: L302A mutation; cited from earlier work
# T2 construct: made in house; host or cells: in vitro transcription/translation (rabbit reticulocyte lysate)
# T2 sequence (P30561 10-848 L302A): T1 sequence (P30561 10-848 S359A) with L293A, A350S
# [3] = tested on: Q377A mutant AhR; design: method as in PMID 17223691; conditions: mutation of Q377 to alanine; cited from earlier work
Structure (SMILES),IC50 [1],"change of relative binding affinity versus wild-type AhR ([1]; S359A substitution, in words)",TCDD binding activity [2],TCDD specific binding [3]
O=c1cc(-c2ccccc2)oc2ccc3ccccc3c12 [BNF],47.1 nM,,,
"O=Cc1c2[nH]c3ccccc3c2cc2[nH]c3ccccc3c12 [FICZ, 6-formylindolo[3,2-b]carbazole]",4.1 nM,decreased binding,,
"Clc1cc2c(cc1Cl)Oc1cc(Cl)c(Cl)cc1O2 [TCDD, 2,3,7,8-tetrachlorodibenzo-p-dioxin]",,,dramatically reduced,abolish
